Data taken from ChEMBL document CHEMBL3885861, “Open TG-GATES”.

Species on record: Rattus norvegicus
Test: Open TG-GATES - Regimen: Daily Repeat
Format: toxicity, organism-based, Sprague-Dawley
Set-up: regimen Daily Repeat, gender Male, age 6 weeks
Conditions: in vivo, po, 10 mg/kg, route gavage, dose level Low; for APTT / Bas / Eos / Fbg / Hb / Ht / Lym / MCH / MCHC / MCV / Mono / Neu / PT / Plat / RBC / Ret / WBC: tissue Blood; for KIDNEY_L / KIDNEY_R / KIDNEY_TOTAL: tissue Kidney; for LIVER: tissue Liver; for A/G / ALP / ALT / AST / BUN / CRE / Ca / Cl / DBIL / GLC / IP / K / LDH / Na / PL / RALB / TBIL / TC / TG / TP / gamma-GTP: tissue Plasma

CN(C)CCN(Cc1cccs1)c1ccccn1
TERMINAL_BW (72 h, time 3 day): 219.5 g
APTT (72 h, time 3 day): 21.1 s
Bas (72 h, time 3 day): 0%
Eos (72 h, time 3 day): 0.8%
Fbg (72 h, time 3 day): 343 mg/dL
Hb (72 h, time 3 day): 13 g/dL
Ht (72 h, time 3 day): 39.1%
Lym (72 h, time 3 day): 79%
MCH (72 h, time 3 day): 21.6 pg
MCHC (72 h, time 3 day): 33.2%
MCV (72 h, time 3 day): 65 fL
Mono (72 h, time 3 day): 1.6%
Neu (72 h, time 3 day): 18%
PT (72 h, time 3 day): 16 s
Plat (72 h, time 3 day): 116.7 x10_4/uL
RBC (72 h, time 3 day): 603.4 x10_4/ul
Ret (72 h, time 3 day): 7%
WBC (72 h, time 3 day): 85.5 x10_2/uL
KIDNEY_L (72 h, time 3 day): 1 g
KIDNEY_R (72 h, time 3 day): 1 g
KIDNEY_TOTAL (72 h, time 3 day): 2 g
LIVER (72 h, time 3 day): 10.9 g
A/G (72 h, time 3 day): 1.1
ALP (72 h, time 3 day): 1503.8 IU/L
ALT (72 h, time 3 day): 43.2 IU/L
AST (72 h, time 3 day): 72.2 IU/L
BUN (72 h, time 3 day): 16.8 mg/dL
CRE (72 h, time 3 day): 0.2 mg/dL
Ca (72 h, time 3 day): 10.9 mg/dL
Cl (72 h, time 3 day): 107 meq/L
DBIL (72 h, time 3 day): 0 mg/dL
GLC (72 h, time 3 day): 188.2 mg/dL
IP (72 h, time 3 day): 7.8 mg/dL
K (72 h, time 3 day): 4.2 meq/L
LDH (72 h, time 3 day): 181 IU/L
Na (72 h, time 3 day): 143.6 meq/L
PL (72 h, time 3 day): 149.8 mg/dL
RALB (72 h, time 3 day): 2.9 g/dL
TBIL (72 h, time 3 day): 0.006 mg/dL
TC (72 h, time 3 day): 80.6 mg/dL
TG (72 h, time 3 day): 108.2 mg/dL
TP (72 h, time 3 day): 5.6 g/dL
gamma-GTP (72 h, time 3 day): 1.2 IU/L
TERMINAL_BW ([…], time 7 day): 229.9 g
TERMINAL_BW ([…], time 14 day): 284.8 g
TERMINAL_BW ([…], time 28 day): 353.5 g
APTT ([…], time 7 day): 22.1 s
Bas ([…], time 7 day): 0%
Eos ([…], time 7 day): 1%
Fbg ([…], time 7 day): 323.4 mg/dL
Hb ([…], time 7 day): 13.7 g/dL
Ht ([…], time 7 day): 40.5%
Lym ([…], time 7 day): 82.8%
MCH ([…], time 7 day): 20.8 pg
MCHC ([…], time 7 day): 33.8%
MCV ([…], time 7 day): 61.6 fL
Mono ([…], time 7 day): 2%
Neu ([…], time 7 day): 13.2%
PT ([…], time 7 day): 16.4 s
Plat ([…], time 7 day): 120.4 x10_4/uL
RBC ([…], time 7 day): 658 x10_4/ul
Ret ([…], time 7 day): 4.8%
WBC ([…], time 7 day): 113.4 x10_2/uL
APTT ([…], time 14 day): 21.3 s
Bas ([…], time 14 day): 0%
Eos ([…], time 14 day): 0.6%
Fbg ([…], time 14 day): 297.6 mg/dL
Hb ([…], time 14 day): 14.3 g/dL
Ht ([…], time 14 day): 42.1%
Lym ([…], time 14 day): 83.6%
MCH ([…], time 14 day): 20.8 pg
MCHC ([…], time 14 day): 34%
MCV ([…], time 14 day): 61.1 fL
Mono ([…], time 14 day): 1.6%
Neu ([…], time 14 day): 13.2%
PT ([…], time 14 day): 16.2 s
Plat ([…], time 14 day): 116 x10_4/uL
RBC ([…], time 14 day): 689.4 x10_4/ul
Ret ([…], time 14 day): 4.6%
WBC ([…], time 14 day): 120.5 x10_2/uL
APTT ([…], time 28 day): 22.8 s
Bas ([…], time 28 day): 0%
Eos ([…], time 28 day): 1.2%
Fbg ([…], time 28 day): 307.8 mg/dL
Hb ([…], time 28 day): 15.3 g/dL
Ht ([…], time 28 day): 44.4%
Lym ([…], time 28 day): 78.8%
MCH ([…], time 28 day): 20.2 pg
MCHC ([…], time 28 day): 34.5%
MCV ([…], time 28 day): 58.6 fL
Mono ([…], time 28 day): 2.2%
Neu ([…], time 28 day): 17.2%
PT ([…], time 28 day): 15.8 s
Plat ([…], time 28 day): 96.3 x10_4/uL
RBC ([…], time 28 day): 758 x10_4/ul
Ret ([…], time 28 day): 2.6%
WBC ([…], time 28 day): 105 x10_2/uL
KIDNEY_L ([…], time 7 day): 1 g
KIDNEY_R ([…], time 7 day): 1 g
KIDNEY_TOTAL ([…], time 7 day): 2 g
KIDNEY_L ([…], time 14 day): 1.1 g
KIDNEY_R ([…], time 14 day): 1.2 g
KIDNEY_TOTAL ([…], time 14 day): 2.3 g
KIDNEY_L ([…], time 28 day): 1.2 g
KIDNEY_R ([…], time 28 day): 1.3 g
KIDNEY_TOTAL ([…], time 28 day): 2.5 g
LIVER ([…], time 7 day): 10.6 g
LIVER ([…], time 14 day): 12.3 g
LIVER ([…], time 28 day): 14.3 g
A/G ([…], time 7 day): 1.1
ALP ([…], time 7 day): 1638.2 IU/L
ALT ([…], time 7 day): 35.6 IU/L
AST ([…], time 7 day): 66.6 IU/L
BUN ([…], time 7 day): 18.6 mg/dL
CRE ([…], time 7 day): 0.2 mg/dL
Ca ([…], time 7 day): 10.4 mg/dL
Cl ([…], time 7 day): 108.8 meq/L
DBIL ([…], time 7 day): 0 mg/dL
GLC ([…], time 7 day): 174.6 mg/dL
IP ([…], time 7 day): 6.8 mg/dL
K ([…], time 7 day): 4.7 meq/L
LDH ([…], time 7 day): 183.8 IU/L
Na ([…], time 7 day): 144.2 meq/L
PL ([…], time 7 day): 129.6 mg/dL
RALB ([…], time 7 day): 3 g/dL
TBIL ([…], time 7 day): 0.008 mg/dL
TC ([…], time 7 day): 63.2 mg/dL
TG ([…], time 7 day): 109.2 mg/dL
TP ([…], time 7 day): 5.7 g/dL
gamma-GTP ([…], time 7 day): 1 IU/L
A/G ([…], time 14 day): 1.1
ALP ([…], time 14 day): 1409 IU/L
ALT ([…], time 14 day): 39.4 IU/L
AST ([…], time 14 day): 68.6 IU/L
BUN ([…], time 14 day): 17.6 mg/dL
CRE ([…], time 14 day): 0.2 mg/dL
Ca ([…], time 14 day): 10.2 mg/dL
Cl ([…], time 14 day): 108.2 meq/L
DBIL ([…], time 14 day): 0.002 mg/dL
GLC ([…], time 14 day): 175.4 mg/dL
IP ([…], time 14 day): 6.7 mg/dL
K ([…], time 14 day): 4.2 meq/L
LDH ([…], time 14 day): 177.2 IU/L
Na ([…], time 14 day): 143.2 meq/L
PL ([…], time 14 day): 137.2 mg/dL
RALB ([…], time 14 day): 2.9 g/dL
TBIL ([…], time 14 day): 0.012 mg/dL
TC ([…], time 14 day): 71.8 mg/dL
TG ([…], time 14 day): 88.8 mg/dL
TP ([…], time 14 day): 5.6 g/dL
gamma-GTP ([…], time 14 day): 1 IU/L
A/G ([…], time 28 day): 1.2
ALP ([…], time 28 day): 1369.6 IU/L
ALT ([…], time 28 day): 45.8 IU/L
AST ([…], time 28 day): 73.4 IU/L
BUN ([…], time 28 day): 20.4 mg/dL
CRE ([…], time 28 day): 0.2 mg/dL
Ca ([…], time 28 day): 10.3 mg/dL
Cl ([…], time 28 day): 107.6 meq/L
DBIL ([…], time 28 day): 0.004 mg/dL
GLC ([…], time 28 day): 189 mg/dL
IP ([…], time 28 day): 6.5 mg/dL
K ([…], time 28 day): 3.9 meq/L
LDH ([…], time 28 day): 183.6 IU/L
Na ([…], time 28 day): 143.2 meq/L
PL ([…], time 28 day): 142.6 mg/dL
RALB ([…], time 28 day): 3.2 g/dL
TBIL ([…], time 28 day): 0.026 mg/dL
TC ([…], time 28 day): 72.4 mg/dL
TG ([…], time 28 day): 111 mg/dL
TP ([…], time 28 day): 5.7 g/dL
gamma-GTP ([…], time 28 day): 1.4 IU/L
